According to US20260372306A1, “MICROBIOCIDAL HETEROBICYCLIC DIHYDROOXADIAZINE DERIVATIVES” (SYNGENTA CROP PROTECTION AG, priority 2022, published 2026):

Assays:
[1] = test system: Mycosphaerella graminicola; test: Mycosphaerella graminicola (Septoria tritici) (Septoria Blotch), growth inhibition in nutrient broth; format: cell-based; settings: Zymoseptoria tritici, read-out: control of Mycosphaerella gramminicola (inhibition of growth)
Procedure: (§1) Mycelia fragments or conidia suspensions of a fungus prepared either freshly from liquid cultures of the fungus or from cryogenic storage, are directly mixed into nutrient broth. DMSO solutions of the test compound (max. 10 mg/mL) are diluted with 0.025% Tween20 by a factor of 50 and 10 μL of this solution is pipetted into a microtiter plate (96-well format). The nutrient broth containing the fungal spores/mycelia fragments is then added to give an end concentration of the tested compound. The test plates are incubated in the dark at 24 °C and 96% relative humidity. The inhibition of fungal growth is determined photometrically after 2 to 7 days, depending on the pathosystem, and percent antifungal activity relative to the untreated check is calculated.
(§2) Conidia of the fungus from cryogenic storage are directly mixed into nutrient broth (PDB potato dextrose broth). After placing a (DMSO) solution of test compound into a microtiter plate (96-well format), the nutrient broth containing the fungal spores is added. The test plates are incubated at 24 °C and the inhibition of growth is determined photometrically 4-5 days after application.

Botryotinia fuckeliana = Botryotinia fuckeliana syn. Botrytis cinerea (Gray Mould of Grapevine), growth inhibition in nutrient broth; format: cell-based; settings: Vogels broth, 24 °C, photometric, 3-4 days after application, read-out: control of Botryotinia fuckeliana (inhibition of growth)
Procedure: as §1
as §2, with “(Vogels” for “(PDB potato dextrose”, “3-4” for “4-5”

Glomerella lagenarium = Glomerella lagenarium syn. Colletotrichum lagenarium (Anthracnose of Cucurbits), growth inhibition in nutrient broth; format: cell-based; settings: Colletotrichum orbiculare, PDB potato dextrose broth, 24 °C, photometric, 3-4 days after application, read-out: control of Glomerella lagenarium (inhibition of growth)
Procedure: as §1
as §2, with “measured” for “determined”, “3-4” for “4-5”

Sclerotinia sclerotiorum = Sclerotinia sclerotiorum (Cottony Rot of Oilseed Rape), growth inhibition in nutrient broth; format: cell-based; settings: PDB potato dextrose broth, 24 °C, photometric, 3-4 days after application, read-out: control of Sclerotinia sclerotiorum (inhibition of growth)
Procedure: as §1
as §2, with “Mycelia fragments of a newly grown liquid culture” for “Conidia”, “fungus” for “fungus from cryogenic storage”, “format)” for “format),”, “material” for “spores”, “3-4” for “4-5”

Monographella nivalis = Monographella nivalis syn. Microdochium nivale, Fusarium nivale (Snow Mould, Foot Rot of Cereals), growth inhibition in nutrient broth; format: cell-based; settings: PDB potato dextrose broth, 24 °C, photometric, 4-5 days after application, read-out: control of Monographella nivalis (inhibition of growth)
Procedure: as §1, §2

Alternaria solani = Alternaria solani (Early Blight of Tomato), tomato leaf disks, preventative; format: in vivo; settings: 200 ppm; tomato leaf disks cv. Baby; inoculated 2 days after application; assessed 5-7 days after application
Procedure: (§3) Leaf disks or leaf segments of various plant species are cut from plants grown in a greenhouse. The cut leaf disks or segments are placed in multiwell plates (24-well format) onto water agar. The leaf disks are sprayed with a test solution before (preventative) or after (curative) inoculation. Compounds to be tested are prepared as DMSO solutions (max. 10 mg/mL) which are diluted to the appropriate concentration with 0.025% Tween20 just before spraying. The inoculated leaf disks or segments are incubated under defined conditions (temperature, relative humidity, light, etc.) according to the respective test system. A single evaluation of disease level is carried out 3 to 14 days after inoculation, depending on the pathosystem. Percent disease control relative to the untreated check leaf disks or segments is then calculated.
Tomato leaf disks cv. Baby are placed on agar in multiwell plates (24-well format) and sprayed with the formulated test compound diluted in water. […] The inoculated leaf disks are incubated at 23 °C/21 °C (day/night) and 80% rh under a light regime of 12/12 h (light/dark) in a climate cabinet and the activity of a compound is assessed as percent disease control compared to untreated when an appropriate level of disease damage appears on untreated check disk leaf disks (5-7 days after application).

Pyrenophora teres = Pyrenophora teres (Net Blotch of Barley), barley leaf segments, preventative; format: in vivo; settings: 200 ppm; barley leaf segments cv. Hasso; inoculated 2 days after application; assessed 5-7 days after application
Procedure: as §3
Barley leaf segments cv. Hasso are placed on agar in a multiwell plate (24-well format) and sprayed with the formulated test compound diluted in water. […] The inoculated leaf segments are incubated at 20 °C and 65% rh under a light regime of 12 h light/12 h darkness in a climate cabinet and the activity of a compound is assessed as disease control compared to untreated when an appropriate level of disease damage appears in untreated check leaf segments (5-7 days after application).

SMILES	inhibition at 20 ppm [1] [%]	inhibition at 20 ppm (Botryotinia fuckeliana) [%]	inhibition at 20 ppm (Glomerella lagenarium) [%]	inhibition at 20 ppm (Sclerotinia sclerotiorum) [%]	inhibition at 20 ppm (Monographella nivalis) [%]	control of Alternaria solani (percent disease control compared to untreated) (Alternaria solani)	control of Pyrenophora teres (disease control compared to untreated) (Pyrenophora teres)
Clc1ccc(CC2CON=C(c3c(Oc4cccc(C5CC5)c4)cnn4ccnc34)N2)c(Cl)c1 (stereo not shown) [Compound 1.5, 3-[7-(3-cyclopropylphenoxy)imidazo[1,2-b]pyridazin-8-yl]-5-[(2,4-dichlorophenyl)methyl]-5,6-dihydro-4H-1,2,4-oxadiazine]	≥ 80	≥ 80	≥ 80	≥ 80	≥ 80	–	–
Clc1ccc(CC2CON=C(c3c(Oc4cccc(C5CC5)c4)cnc4c(Cl)cnn34)N2)c(Cl)c1 (stereo not shown) [Compound 1.2, 3-[3-chloro-6-(3-cyclopropylphenoxy)pyrazolo[1,5-a]pyrimidin-7-yl]-5-[(2,4-dichlorophenyl)methyl]-5,6-dihydro-4H-1,2,4-oxadiazine]	–	≥ 80	–	–	–	–	–
Fc1cc2ncc(Oc3cccc(C4CC4)c3)c(C3=NOCC(Cc4ccc(Cl)cc4Cl)N3)n2n1 (stereo not shown) [Compound 1.3, 3-[6-(3-cyclopropylphenoxy)-2-fluoro-pyrazolo[1,5-a]pyrimidin-7-yl]-5-[(2,4-dichlorophenyl)methyl]-5,6-dihydro-4H-1,2,4-oxadiazine]	–	≥ 80	–	–	–	–	–
Clc1ccc(CC2CON=C(c3c(Oc4cccc(C5CC5)c4)cnc4cc(Cl)nn34)N2)c(Cl)c1 (stereo not shown) [Compound 1.4, 3-[2-chloro-6-(3-cyclopropylphenoxy)pyrazolo[1,5-a]pyrimidin-7-yl]-5-[(2,4-dichlorophenyl)methyl]-5,6-dihydro-4H-1,2,4-oxadiazine]	–	≥ 80	–	–	–	–	–
Clc1ccc(CC2CON=C(c3c(Oc4cccc(C5CC5)c4)cnc4ccnn34)N2)c(Cl)c1 (stereo not shown) [Compound 1.1, 3-[6-(3-cyclopropylphenoxy)pyrazolo[1,5-a]pyrimidin-7-yl]-5-[(2,4-dichlorophenyl)methyl]-5,6-dihydro-4H-1,2,4-oxadiazine]	–	≥ 80	≥ 80	≥ 80	–	at least 80%	at least 80%
